This note sets out measurements from ChEMBL document CHEMBL4811221, “Diosgenin Derivatives as Potential Antitumor Agents: Synthesis, Cytotoxicity, and Mechanism of Action” (J Nat Prod, 2021).

In one assay the test system is A549. The assay is described as follows: Cytotoxicity against human A549 cells assessed as cell growth inhibition measured after 24 hrs by MTT assay. It counts as functional, cell-based. To be noted: A549, 24 h.
The test system of a further assay is MCF7. Put plainly: Cytotoxicity against human MCF7 cells assessed as cell growth inhibition measured after 24 hrs by MTT assay. To be noted: MCF7, 24 h. The class given is functional, cell-based.
Another assay concerns HepG2. The assay is described as follows: Cytotoxicity against human HepG2 cells assessed as cell growth inhibition measured after 24 hrs by MTT assay. The conditions noted are these: HepG2, 24 h. It counts as functional, cell-based.
Another assay relates to L02. Put plainly: Cytotoxicity against human L02 cells assessed as cell growth inhibition measured after 24 hrs by MTT assay. The class given is cell-based. To be noted: L02, 24 h.

Consider `C[C@@H]1CC[C@@]2(OC1)O[C@H]1C[C@H]3[C@@H]4CC=C5C[C@@H](OC(=O)CCC(=O)N6CCOCC6)CC[C@]5(C)[C@H]4CC[C@]3(C)[C@H]1[C@@H]2C`, for which the IC50 with A549 is 3.2 µM; in the assay on MCF7, greater than 10 µM; in the assay on HepG2 it was 10.4 µM; in the assay on L02, 34.3 µM.
Take `CCN(CC)C(=O)CCC(=O)O[C@H]1CC[C@@]2(C)C(=CC[C@H]3[C@@H]4C[C@@H]5O[C@]6(CC[C@@H](C)CO6)[C@@H](C)[C@@H]5[C@@]4(C)CC[C@@H]32)C1`: the figures for the IC50 in the assay on A549, with MCF7 and in the assay on HepG2 were 4.5 µM, greater than 10 µM and greater than 10 µM, respectively.
For the compound `C[C@@H]1CC[C@@]2(OC1)O[C@H]1C[C@H]3[C@@H]4CC=C5C[C@@H](OC(=O)/C=C\C(=O)N6CCNCC6)CC[C@]5(C)[C@H]4CC[C@]3(C)[C@H]1[C@@H]2C`, the IC50 in the assay on MCF7 is 2.3 µM; in the assay with HepG2, greater than 10 µM; in the assay with L02, 39.1 µM.
For the compound `C[C@@H]1CC[C@@]2(OC1)O[C@H]1C[C@H]3[C@@H]4CC=C5C[C@@H](O)CC[C@]5(C)[C@H]4CC[C@]3(C)[C@H]1[C@@H]2C` [DISOGENIN], the IC50 in the assay with A549, with MCF7 and in the assay on HepG2 was greater than 10 µM in each case.
As for `C[C@@H]1CC[C@@]2(OC1)O[C@H]1C[C@H]3[C@@H]4CC=C5C[C@@H](OC(=O)CCC(=O)N6CC[N+](Cc7ccccc7)(Cc7ccccc7)CC6)CC[C@]5(C)[C@H]4CC[C@]3(C)[C@H]1[C@@H]2C`, the IC50 turned out to be 2.9 µM in the assay with A549, 9.4 µM with MCF7, 6.4 µM with HepG2 and 18.7 µM in the assay on L02.
Taken in the same sequence, the figures for `C[C@@H]1CC[C@@]2(OC1)O[C@H]1C[C@H]3[C@@H]4CC=C5C[C@@H](OC(=O)CCCC(=O)N6CCNCC6)CC[C@]5(C)[C@H]4CC[C@]3(C)[C@H]1[C@@H]2C` were 3.2 µM, 6 µM, 2 µM and 14.8 µM.
Taken in the same sequence, the figures for `C=CS(=O)(=O)N1CCN(C(=O)CCC(=O)O[C@H]2CC[C@@]3(C)C(=CC[C@H]4[C@@H]5C[C@@H]6O[C@]7(CC[C@@H](C)CO7)[C@@H](C)[C@@H]6[C@@]5(C)CC[C@@H]43)C2)CC1` were 4.1 µM, greater than 10 µM, 5.1 µM and 23.6 µM.
`CC(=O)O[C@H]1C(=O)[C@@]2(C)[C@H]([C@H](OC(=O)c3ccccc3)[C@]3(O)C[C@H](OC(=O)[C@H](O)[C@@H](NC(=O)c4ccccc4)c4ccccc4)C(C)=C1C3(C)C)[C@]1(OC(C)=O)CO[C@@H]1C[C@@H]2O` [PACLITAXEL]: the IC50 is 5.4 µM with A549 and greater than 100 µM in the assay on L02.
For `C[C@@H]1CC[C@@]2(OC1)O[C@H]1C[C@H]3[C@@H]4CC=C5C[C@@H](OC(=O)CCCC(=O)N6CCOCC6)CC[C@]5(C)[C@H]4CC[C@]3(C)[C@H]1[C@@H]2C`, the IC50 is 8.6 µM in the assay with A549, greater than 10 µM in the assay with MCF7 and greater than 10 µM in the assay with HepG2.
As to `CCN(CC)C(=O)CCCC(=O)O[C@H]1CC[C@@]2(C)C(=CC[C@H]3[C@@H]4C[C@@H]5O[C@]6(CC[C@@H](C)CO6)[C@@H](C)[C@@H]5[C@@]4(C)CC[C@@H]32)C1`, the IC50 in the assay with A549 was 7.4 µM; in the assay with MCF7 it was greater than 10 µM; in the assay with HepG2 it was greater than 10 µM.
Take `C[C@@H]1CC[C@@]2(OC1)O[C@H]1C[C@H]3[C@@H]4CC=C5C[C@@H](OC(=O)CCC(=O)N6CCN(S(=O)(=O)C7CC7)CC6)CC[C@]5(C)[C@H]4CC[C@]3(C)[C@H]1[C@@H]2C`: the IC50 was 4.2 µM in the assay on A549, greater than 10 µM in the assay on MCF7 and greater than 10 µM in the assay on HepG2.
In the case of `C[C@@H]1CC[C@@]2(OC1)O[C@H]1C[C@H]3[C@@H]4CC=C5C[C@@H](OC(=O)CCC(=O)N6CC[N+](Cc7ccc(C(C)(C)C)cc7)(Cc7ccc(C(C)(C)C)cc7)CC6)CC[C@]5(C)[C@H]4CC[C@]3(C)[C@H]1[C@@H]2C`, the IC50 in the assay with A549 was 3 µM; in the assay with MCF7 it was 6 µM; with HepG2, 6.7 µM; with L02, 21.2 µM.
On to `C[C@@H]1CC[C@@]2(OC1)O[C@H]1C[C@H]3[C@@H]4CC=C5C[C@@H](OC(=O)/C=C\C(=O)N6CCc7ccccc7C6)CC[C@]5(C)[C@H]4CC[C@]3(C)[C@H]1[C@@H]2C`, for which the IC50 in the assay on A549 came to 7.6 µM.
Take `C[C@@H]1CC[C@@]2(OC1)O[C@H]1C[C@H]3[C@@H]4CC=C5C[C@@H](OC(=O)CCC(=O)N6CCN(S(=O)(=O)c7ccccc7)CC6)CC[C@]5(C)[C@H]4CC[C@]3(C)[C@H]1[C@@H]2C`: the results for the half-maximal inhibitory concentration (IC50) with A549, with MCF7 and in the assay on HepG2 were 8.7 µM, greater than 10 µM and greater than 10 µM, respectively.
Regarding `C[C@@H]1CC[C@@]2(OC1)O[C@H]1C[C@H]3[C@@H]4CC=C5C[C@@H](OC(=O)CCC(=O)N6CCN(S(=O)(=O)O)CC6)CC[C@]5(C)[C@H]4CC[C@]3(C)[C@H]1[C@@H]2C`, the IC50 with MCF7 and with HepG2 was greater than 10 µM each time.
With `CCN(CC)C(=O)/C=C\C(=O)O[C@H]1CC[C@@]2(C)C(=CC[C@H]3[C@@H]4C[C@@H]5O[C@]6(CC[C@@H](C)CO6)[C@@H](C)[C@@H]5[C@@]4(C)CC[C@@H]32)C1`, the IC50 with A549 was 7.1 µM; with MCF7, greater than 10 µM; in the assay with HepG2 it was greater than 10 µM.
Take `Cc1ccc(S(=O)(=O)N2CCN(C(=O)CCC(=O)O[C@H]3CC[C@@]4(C)C(=CC[C@H]5[C@@H]6C[C@@H]7O[C@]8(CC[C@@H](C)CO8)[C@@H](C)[C@@H]7[C@@]6(C)CC[C@@H]54)C3)CC2)cc1`: the IC50 in the assay on A549 is 4.7 µM; in the assay on MCF7, greater than 10 µM; in the assay on HepG2, greater than 10 µM.
As to `C[C@@H]1CC[C@@]2(OC1)O[C@H]1C[C@H]3[C@@H]4CC=C5C[C@@H](OC(=O)CCCC(=O)N6CCCC6)CC[C@]5(C)[C@H]4CC[C@]3(C)[C@H]1[C@@H]2C`, the IC50 with A549 is 5.6 µM; in the assay with MCF7, greater than 10 µM; in the assay on HepG2, 8.3 µM.
For `C[C@@H]1CC[C@@]2(OC1)O[C@H]1C[C@H]3[C@@H]4CC=C5C[C@@H](OC(=O)/C=C\C(=O)N6CCCC6)CC[C@]5(C)[C@H]4CC[C@]3(C)[C@H]1[C@@H]2C`, the IC50 in the assay with MCF7 and with HepG2 was greater than 10 µM throughout.
Turning to `C[C@@H]1CC[C@@]2(OC1)O[C@H]1C[C@H]3[C@@H]4CC=C5C[C@@H](OC(=O)CCC(=O)N6CCCC6)CC[C@]5(C)[C@H]4CC[C@]3(C)[C@H]1[C@@H]2C`, the concentration for half-maximal inhibition (IC50) with MCF7 and in the assay with HepG2 was greater than 10 µM throughout.
For the compound `C[C@@H]1CC[C@@]2(OC1)O[C@H]1C[C@H]3[C@@H]4CC=C5C[C@@H](OC(=O)c6ccccc6C(=O)N6CCCC6)CC[C@]5(C)[C@H]4CC[C@]3(C)[C@H]1[C@@H]2C`, the IC50 in the assay on MCF7 and in the assay with HepG2 was greater than 10 µM each time.
For `C[C@@H]1CC[C@@]2(OC1)O[C@H]1C[C@H]3[C@@H]4CC=C5C[C@@H](OC(=O)c6ccccc6C(=O)N6CCOCC6)CC[C@]5(C)[C@H]4CC[C@]3(C)[C@H]1[C@@H]2C`, the IC50 in the assay with MCF7 and in the assay with HepG2 was greater than 10 µM each time.
With `CCS(=O)(=O)N1CCN(C(=O)CCC(=O)O[C@H]2CC[C@@]3(C)C(=CC[C@H]4[C@@H]5C[C@@H]6O[C@]7(CC[C@@H](C)CO7)[C@@H](C)[C@@H]6[C@@]5(C)CC[C@@H]43)C2)CC1`, the IC50 is 6.2 µM in the assay with A549, greater than 10 µM with MCF7 and greater than 10 µM in the assay with HepG2.
Regarding `C[C@@H]1CC[C@@]2(OC1)O[C@H]1C[C@H]3[C@@H]4CC=C5C[C@@H](OC(=O)CCCC(=O)N6CCc7ccccc7C6)CC[C@]5(C)[C@H]4CC[C@]3(C)[C@H]1[C@@H]2C`, the IC50 with MCF7 and in the assay with HepG2 was greater than 10 µM in each case.
`CCN(CC)C(=O)c1ccccc1C(=O)O[C@H]1CC[C@@]2(C)C(=CC[C@H]3[C@@H]4C[C@@H]5O[C@]6(CC[C@@H](C)CO6)[C@@H](C)[C@@H]5[C@@]4(C)CC[C@@H]32)C1`: the IC50 with MCF7 and in the assay with HepG2 was greater than 10 µM each time.
As for `C[C@@H]1CC[C@@]2(OC1)O[C@H]1C[C@H]3[C@@H]4CC=C5C[C@@H](OC(=O)/C=C\C(=O)N6CCOCC6)CC[C@]5(C)[C@H]4CC[C@]3(C)[C@H]1[C@@H]2C`, the IC50 in the assay on A549 is 5.5 µM; with MCF7 it was greater than 10 µM; in the assay on HepG2, greater than 10 µM.
For the compound `C[C@@H]1CC[C@@]2(OC1)O[C@H]1C[C@H]3[C@@H]4CC=C5C[C@@H](OC(=O)CCC(=O)N6CCc7ccccc7C6)CC[C@]5(C)[C@H]4CC[C@]3(C)[C@H]1[C@@H]2C`, the IC50 in the assay on MCF7 and in the assay with HepG2 was greater than 10 µM throughout.
In the case of `C[C@@H]1CC[C@@]2(OC1)O[C@H]1C[C@H]3[C@@H]4CC=C5C[C@@H](OC(=O)CCC(=O)N6CC[N+](Cc7ccc(Cl)cc7)(Cc7ccc(Cl)cc7)CC6)CC[C@]5(C)[C@H]4CC[C@]3(C)[C@H]1[C@@H]2C`, the IC50 in the assay on A549 is 5.4 µM; in the assay on MCF7, greater than 10 µM; in the assay with HepG2, greater than 10 µM.
In the case of `C[C@@H]1CC[C@@]2(OC1)O[C@H]1C[C@H]3[C@@H]4CC=C5C[C@@H](OC(=O)c6ccccc6C(=O)N6CCc7ccccc7C6)CC[C@]5(C)[C@H]4CC[C@]3(C)[C@H]1[C@@H]2C`, the IC50 in the assay with MCF7 and in the assay on HepG2 was greater than 10 µM each time.
In the case of `C[C@@H]1CC[C@@]2(OC1)O[C@H]1C[C@H]3[C@@H]4CC=C5C[C@@H](OC(=O)CCC(=O)N6CCN(S(=O)(=O)c7ccc(F)cc7)CC6)CC[C@]5(C)[C@H]4CC[C@]3(C)[C@H]1[C@@H]2C`, the IC50 with A549 was 3.7 µM; with MCF7, greater than 10 µM; in the assay with HepG2, greater than 10 µM.
